Data set [1] relates to various bacterial species. Kind of data set: Minimum Inhibitory Concentration (MIC) testing, broth microdilution, other bacterial species. The format is cell-based. On the procedure: Compounds of this invention were tested for antimicrobial activity by susceptibility testing in liquid media. MICs for compounds against each strain were determined by a broth microdilution method according to the National Committee for Clinical Laboratory Standards (NCCLS) guidelines. (NCCLS. 2000. Methods for dilution antimicrobial susceptibility tests for bacteria that grow aerobically—fifth edition. Approved standard M7-A5. NCCLS, Wayne, Pa.)
Briefly, test compounds are prepared in 100 μl of 1.6% DMSO solution in multiwell plates. Several bacterial colonies from a freshly streaked plate are transferred to an appropriate rich broth, such as Mueller Hinton. The cell suspension is adjusted to an optical density of 0.09 and further diluted 1:100 with warm 2× broth. This cell suspension is dispensed into the wells containing compound solution so that the final volume is 200 μl. The plates are incubated overnight (16-20 hours) at 37° C. and turbidity is scored by eye and quantified spectrophotometrically. The MIC is defined as the lowest concentration inhibiting visible growth.
Some of the Examples were also tested for activity against other bacterial species. […] Activities were again scored as ‘A’ if the MIC was ≦8 micrograms/ml, ‘B’ if the MIC was 16 to 64 micrograms/ml and ‘C’ if the MIC was greater than 64 micrograms/ml.

Data set [2] has as its system Staphylococcus aureus ATCC29213. As to the kind of experiment: Minimum Inhibitory Concentration (MIC) testing, broth microdilution, Staphylococcus aureus. The class given is cell-based. The conditions noted are these: Staphylococcus aureus ATCC29213; read-out: Staphylococcus aureus MICs Activity. A digest of the protocol: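 Broth microdilution per NCCLS M7-A5 in Mueller Hinton broth, with compound in 1.6% DMSO and inoculum at OD 0.09 diluted 1:100. Plates incubated 16–20 h at 37°C. MIC is the lowest concentration with no visible growth; scored A ≤8, B 16–64, C >64 μg/ml.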
For orientation: Dilution methods test growth across graded concentrations, often in twofold steps.

The next data set concerns Bacillus subtilis 168CA. Kind of data set: Minimum Inhibitory Concentration (MIC) testing, broth microdilution, Bacillus subtilis. The class given is cell-based. The settings on record: Bacillus subtilis 168CA; read-out: Bacillus subtilis MICs Activity. A digest of the protocol: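 MICs were scored A (≦8 μg/ml), B (16–64 μg/ml) or C (>64 μg/ml), read as the lowest concentration preventing visible growth by eye and spectrophotometry. Plates incubated overnight (16–20 h) at 37 °C, inoculum OD 0.09 diluted 1:100 in 2× broth, per NCCLS guidelines.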

≈ marks a conversion by molar mass, not a printed value. Where two headings read alike, the source gives them in different places.

As usually defined, the melting point is the temperature of the solid-liquid transition. `NC(=O)c1c(F)ccc(OCc2cc3cc(C(F)(F)F)ccc3s2)c1F` [Example 208, 2,6-Difluoro-3-[5-(trifluoromethyl)-1-benzothiophen-2-yl]methoxybenzenecarboxamide]: the melting point lay within 150 to 152 °C. Also, the MIC in data set [1] (Bacillus cereus, ATCC14579, read-out: MIC Activity Bacillus cereus ATCC 14579) is less than 8 µg/mL. Besides, the MIC in data set [1] (Staphylococcus saprophyticus, ATCC15305, read-out: MIC Activity Staphylococcus saprophyticus ATCC 15305) was less than 8 µg/mL. Besides, the MIC in data set [2] was less than 8 µg/mL. Besides, the MIC in the data set with Bacillus subtilis 168CA was less than 8 µg/mL.

Regarding `C#CCCCCCCOC(=O)COc1ccc(F)c(C(N)=O)c1F` [Example 90, 7-Octynyl 2-[3-(aminocarbonyl)-2,4-difluorophenoxy]acetate], the melting point was in the range of 130 to 132 °C. For the same compound, in data set [2], the MIC is less than 8 µg/mL. The MIC in the data set on Bacillus subtilis 168CA is less than 8 µg/mL.

Compound `NC(=O)c1cccc(OCCCCC/C=C\c2ccc(Cl)o2)c1` [Example 64, 3-{[(Z)-7-(5-Chloro-2-furyl)-6-heptenyl]oxy}benzenecarboxamide] registered a melting point of 53 to 56 °C. The MIC in data set [2] is less than 8 µg/mL. Besides, the MIC in the data set on Bacillus subtilis 168CA is less than 8 µg/mL.

In turn, `COc1ccc2nc(COc3ccc(F)c(C(N)=O)c3F)sc2c1` [Example 224, 2,6-Difluoro-3-[(6-methoxy-1,3-benzothiazol-2-yl)methoxy]benzenecarboxamide] returned a melting point of 190 to 192 °C. In addition, in data set [2], the MIC was greater than 64 µg/mL. Further, the MIC in the data set with Bacillus subtilis 168CA was 16 to 64 µg/mL (≈ 45.7 to 183 µM).

Compound `C#CCCCCCCCOc1cccc(C(N)=O)c1` [Example 65, 3-(8-Nonynyloxy)benzenecarboxamide] showed a melting point of 82 to 83 °C. Further, in data set [2], the MIC was less than 8 µg/mL. Besides, the MIC with Bacillus subtilis 168CA was less than 8 µg/mL.

Take `CCCCOC(=O)C=CCOc1ccc(F)c(C(N)=O)c1F` [Example 180, Butyl 4-[3-(aminocarbonyl)-2,4-difluorophenoxy]-2-butenoate]: the melting point is less than 40 °C. For the same compound, the MIC in data set [2] was in the range of 16 to 64 µg/mL (≈ 51.1 to 204 µM). The MIC in the data set on Bacillus subtilis 168CA was less than 8 µg/mL.

In the case of `COC(=O)C=CCOc1ccc(F)c(C(N)=O)c1F` [Example 179, Methyl 4-[3-(aminocarbonyl)-2,4-difluorophenoxy]-2-butenoate], the melting point lay within 122 to 123 °C. Moreover, the MIC in data set [2] is greater than 64 µg/mL. Also, in the data set with Bacillus subtilis 168CA, the MIC was greater than 64 µg/mL.

For the compound `CCCC/C=C\CCCCOc1cccc(C(N)=O)c1` [Example 45, 3-[(Z)-5-Decenyloxy]benzenecarboxamide], the melting point was in the range of 98 to 100 °C. In data set [2], the MIC was less than 8 µg/mL. Also, the MIC in the data set with Bacillus subtilis 168CA was less than 8 µg/mL.

As for `CCCCOC(=O)CCCOc1ccc(F)c(C(N)=O)c1F` [Example 181, Butyl 4-[3-(aminocarbonyl)-2,4-difluorophenoxy]butanoate], the melting point was 53 to 55 °C. Also, the MIC in data set [2] was in the range of 16 to 64 µg/mL (≈ 50.7 to 203 µM). Also, in the data set with Bacillus subtilis 168CA, the MIC is less than 8 µg/mL.

`NC(=O)c1c(F)ccc(OCc2nc3cc(-c4ccncc4)ccc3s2)c1F` [Example 232, 2,6-Difluoro-3-[5-(4-pyridinyl)-1,3-benzothiazol-2-yl]methoxybenzenecarboxamide] yielded a melting point of 255 to 258 °C. The MIC in data set [2] was less than 8 µg/mL. For the same compound, the MIC in the data set on Bacillus subtilis 168CA lay in the range of 16 to 64 µg/mL (≈ 40.3 to 161 µM).

`NC(=O)c1cccc(OCCCCC/C=C\c2ccsc2)c1` [Example 62, 3-{[(Z)-7-(3-Thienyl)-6-heptenyl]oxy}benzenecarboxamide] yielded a melting point of 71 to 73 °C. For the same compound, the MIC in data set [2] was less than 8 µg/mL. In the data set with Bacillus subtilis 168CA, the MIC is less than 8 µg/mL.

As for `CCCCCCCCCOc1cc(C(N)=O)ccn1` [Example 94, 2-(Nonyloxy)isonicotinamide], the melting point was in the range of 108 to 110 °C. In data set [2], the MIC was less than 8 µg/mL. In the data set with Bacillus subtilis 168CA, the MIC is less than 8 µg/mL.

On to `NC(=O)c1cccc(OCc2cccc(O)c2)c1` [Example 173, 3-[(3-Hydroxybenzyl)oxy]benzenecarboxamide], for which the melting point lay in the range of 122 to 123 °C. In addition, the MIC in data set [2] is greater than 64 µg/mL. Further, the MIC in the data set on Bacillus subtilis 168CA was greater than 64 µg/mL.

For `NC(=O)c1c(F)ccc(OCc2nc3ccc(OC(F)(F)F)cc3s2)c1F` [Example 230, 2,6-Difluoro-3-[6-(trifluoromethoxy)-1,3-benzothiazol-2-yl]methoxybenzenecarboxamide], the melting point lay in the range of 174 to 175 °C. Besides, the MIC in data set [2] is less than 8 µg/mL. Further, in the data set on Bacillus subtilis 168CA, the MIC was less than 8 µg/mL.

Consider `CCCCCCOc1c(F)cc(F)c(C(N)=O)c1F` [Example 79, 2,4,6-Trifluoro-3-(hexyloxy)benzenecarboxamide], for which the melting point lay within 89 to 90 °C. Moreover, the MIC in data set [2] fell in the range of 16 to 64 µg/mL (≈ 58.1 to 232 µM). The MIC in the data set on Bacillus subtilis 168CA was in the range of 16 to 64 µg/mL (≈ 58.1 to 232 µM).

In the case of `NC(=O)c1c(F)ccc(OCc2nc(-c3ccc(O)cc3)no2)c1F` [Example 242, 2,6-Difluoro-3-[3-(4-hydroxyphenyl)-1,2,4-oxadiazol-5-yl]methoxybenzenecarboxamide], the melting point lay in the range of 209 to 210 °C. Moreover, the MIC in data set [1] (Staphylococcus epidermidis, ATCC12228, read-out: MIC Activity Staphylococcus epidermidis ATCC 12228) was less than 8 µg/mL. Besides, the MIC in data set [1] (Staphylococcus haemolyticus, ATCC29970, read-out: MIC Activity Staphylococcus haemolyticus ATCC 29970) is less than 8 µg/mL. Besides, in data set [2], the MIC was less than 8 µg/mL. Further, in the data set with Bacillus subtilis 168CA, the MIC is less than 8 µg/mL.

As to `NC(=O)c1c(F)ccc(OCc2ccc3ccccc3n2)c1F` [Example 200, 2,6-Difluoro-3-(2-quinolinylmethoxy)benzenecarboxamide], the melting point was 216 to 218 °C. In addition, in data set [2], the MIC fell in the range of 16 to 64 µg/mL (≈ 50.9 to 204 µM). In addition, the MIC in the data set with Bacillus subtilis 168CA is less than 8 µg/mL.

`C#CCCCCCCCCOc1cccc(C(N)=O)c1` [Example 67, 3-(9-Decynyloxy)benzenecarboxamide]: the melting point is 111 to 112 °C. Further, the MIC in data set [2] was less than 8 µg/mL. Further, the MIC in the data set with Bacillus subtilis 168CA is less than 8 µg/mL.

`CCCCCCOc1ccc(F)c(C(N)=O)c1Cl` [Example 77, 2-Chloro-6-fluoro-3-(hexyloxy)benzenecarboxamide]: the melting point fell in the range of 66 to 68 °C. Further, the MIC in data set [2] lay in the range of 16 to 64 µg/mL (≈ 58.5 to 234 µM). For the same compound, in the data set with Bacillus subtilis 168CA, the MIC was 16 to 64 µg/mL (≈ 58.5 to 234 µM).

`CCCCCCCCCOc1ccc(Cl)c(C(N)=O)c1F` [Example 76, 6-Chloro-2-fluoro-3-(nonyloxy)benzenecarboxamide]: the melting point lay in the range of 75 to 77 °C. The MIC in data set [2] was less than 8 µg/mL. In the data set with Bacillus subtilis 168CA, the MIC was less than 8 µg/mL.

`CCCCCCCCCOc1ccc(F)c(C(N)=O)c1Cl` [Example 78, 2-Chloro-6-fluoro-3-(nonyloxy)benzenecarboxamide] yielded a melting point of 64 to 66 °C. In addition, the MIC in data set [2] is less than 8 µg/mL. Besides, the MIC with Bacillus subtilis 168CA was less than 8 µg/mL.

`NC(=O)c1c(F)ccc(OCc2nc3ccc(Cl)cc3s2)c1F` [Example 227, 3-[(6-Chloro-1,3-benzothiazol-2-yl)methoxy]-2,6-difluorobenzenecarboxamide]: the melting point lay within 190 to 191 °C. For the same compound, in data set [2], the MIC was less than 8 µg/mL. Besides, the MIC with Bacillus subtilis 168CA was less than 8 µg/mL.

In the case of `N#CCOc1ccc(F)c(C(N)=O)c1F` [Example 225, 3-(Cyanomethoxy)-2,6-difluorobenzenecarboxamide], the melting point was in the range of 122 to 123 °C. The MIC in data set [2] is greater than 64 µg/mL. In addition, the MIC with Bacillus subtilis 168CA is greater than 64 µg/mL.

As for `CCCc1ccc2nc(COc3ccc(F)c(C(N)=O)c3F)sc2c1` [Example 231, 2,6-Difluoro-3-[(6-propyl-1,3-benzothiazol-2-yl)methoxy]benzenecarboxamide], the melting point was in the range of 244 to 246 °C. Also, the MIC in data set [2] is less than 8 µg/mL. The MIC in the data set on Bacillus subtilis 168CA is less than 8 µg/mL.

The compound `CC1CC1COc1cccc(C(N)=O)c1` (stereo not shown) [Example 169, 3-[(2-Methylcyclopropyl)methoxy]benzenecarboxamide] registered a melting point of 119 to 121 °C. In addition, in data set [2], the MIC was greater than 64 µg/mL. Also, the MIC with Bacillus subtilis 168CA is greater than 64 µg/mL.

Consider `Cc1cncc(COc2cccc(C(N)=O)c2)c1` [Example 170, 3-[(5-Methyl-3-pyridinyl)methoxy]benzenecarboxamide], for which the melting point is 152 to 154 °C. In addition, the MIC in data set [2] was greater than 64 µg/mL. The MIC in the data set with Bacillus subtilis 168CA was greater than 64 µg/mL.

For `NC(=O)c1ccnc(OCc2nc3cc(Cl)ccc3s2)c1` [Example 222, 2-[(5-Chloro-1,3-benzothiazol-2-yl)methoxy]isonicotinamide], the melting point was 220 to 222 °C. The MIC in data set [2] is less than 8 µg/mL. Also, in the data set on Bacillus subtilis 168CA, the MIC was less than 8 µg/mL.

For the compound `Cc1cccc2sc(COc3ccc(F)c(C(N)=O)c3F)nc12` [Example 228, 2,6-Difluoro-3-[(4-methyl-1,3-benzothiazol-2-yl)methoxy]benzenecarboxamide], the melting point is 201 to 202 °C. Besides, the MIC in data set [2] was 16 to 64 µg/mL (≈ 47.9 to 191 µM). Besides, in the data set on Bacillus subtilis 168CA, the MIC is less than 8 µg/mL.

As to `CCCCCCOC(=O)COc1ccc(F)c(C(N)=O)c1F` [Example 89, Hexyl 2-[3-(aminocarbonyl)-2,4-difluorophenoxy]acetate], the melting point amounted to 108 °C. In addition, the MIC in data set [2] was less than 8 µg/mL. Moreover, in the data set on Bacillus subtilis 168CA, the MIC is less than 8 µg/mL.

These data come from patent US8088791B2, “Antibacterial agents” (Biots Scientific Management Pty Ltd, priority 2006, dated 2012).
